≈ marks a conversion by molar mass, not a printed value. Calls of active or inactive are those of the source. The rule behind the calls is not given here.
Tests used:
Candida albicans [1] = experiment: Antifungal activity against Candida albicans SC5314 assessed as fungal growth inhibition by CLSI based microdilution method; format: functional
Nakaseomyces glabratus = experiment: Antifungal activity against Candida glabrata assessed as fungal growth inhibition by CLSI based microdilution method; format: functional
Candida tropicalis = experiment: Antifungal activity against Candida tropicalis assessed as fungal growth inhibition by CLSI based microdilution method; format: functional
Cryptococcus neoformans = experiment: Antifungal activity against Cryptococcus neoformans assessed as fungal growth inhibition by CLSI based microdilution method; format: functional
[2] = target: T1, Lanosterol 14-alpha demethylase (Candida albicans (strain SC5314 / ATCC MYA-2876) (Yeast), UniProt P10613); experiment: Inhibition of CYP51 in Candida albicans SC5314 assessed as ergosterol level at 0.03125 ug/ml incubated for 24 hrs by GC-MS analysis (reference value: 97.58 %); parameters: scale not given: the % may be the effect or the level left; conditions: at 0.03125 µg/mL
[3] = target: T1, Lanosterol 14-alpha demethylase; experiment: Inhibition of CYP51 in Candida albicans SC5314 assessed as increase in obtusifoliol level at 0.03125 ug/ml incubated for 24 hrs by GC-MS analysis; conditions: at 0.03125 µg/mL
Candida albicans [4] = experiment: Antifungal activity against Candida albicans SC5314 assessed as cell lysis at 16 ug/ml incubated for 24 hrs by TEM analysis; format: functional, organism-based; conditions: dose 16.0 µg/ml
Candida albicans [5] = experiment: Antifungal activity against fluconazole-resistant Candida albicans CaR assessed as fungal growth inhibition by CLSI based microdilution method; format: functional
Candida albicans [6] = experiment: Antibiofilm activity against Candida albicans CPCC400616 incubated for 24 hrs by XTT reduction assay; format: functional, organism-based; conditions: dose <= 128.0 µg/ml
Candida albicans [7] = experiment: Antibiofilm activity against fluconazole-resistant Candida albicans 904 incubated for 24 hrs by XTT reduction assay; format: functional, organism-based; conditions: dose <= 128.0 µg/ml
Candida albicans [8] = experiment: Antifungal activity against Candida albicans CPCC400616 assessed as reduction in EFG1 expression at 2 ug/ml incubated for 12 hrs by RT-PCR analysis; format: functional, organism-based; conditions: dose 2.0 µg/ml
Candida albicans [9] = experiment: Antifungal activity against Candida albicans CPCC400616 assessed as reduction in TEC1 expression at 2 ug/ml incubated for 12 hrs by RT-PCR analysis; format: functional, organism-based; conditions: dose 2.0 µg/ml
Candida albicans [10] = experiment: Antifungal activity against fluconazole-resistant Candida albicans 904 assessed as reduction in TEC1 expression at 16 ug/ml incubated for 12 hrs by RT-PCR analysis; format: functional, organism-based; conditions: dose 16.0 µg/ml
Candida albicans [11] = experiment: Antifungal activity against fluconazole-resistant Candida albicans 904 assessed as reduction in CPH1 expression at 16 ug/ml incubated for 12 hrs by RT-PCR analysis; format: functional, organism-based; conditions: dose 16.0 µg/ml
Candida albicans [12] = experiment: Antifungal activity against Candida albicans CPCC400616 assessed as reduction in ALS3 expression at 2 ug/ml incubated for 12 hrs by RT-PCR analysis; format: functional, organism-based; conditions: dose 2.0 µg/ml
Cytochrome P450 1A2 = target: T2, Cytochrome P450 1A2 (Homo sapiens, UniProt P05177); experiment: Inhibition of CYP1A2 in human liver microsomes using phenacetin as substrate preincubated for 5 mins followed by NADPH addition by LC-MS/MS analysis; format: ADME, Microsome
T2 sequence (P05177 whole entry): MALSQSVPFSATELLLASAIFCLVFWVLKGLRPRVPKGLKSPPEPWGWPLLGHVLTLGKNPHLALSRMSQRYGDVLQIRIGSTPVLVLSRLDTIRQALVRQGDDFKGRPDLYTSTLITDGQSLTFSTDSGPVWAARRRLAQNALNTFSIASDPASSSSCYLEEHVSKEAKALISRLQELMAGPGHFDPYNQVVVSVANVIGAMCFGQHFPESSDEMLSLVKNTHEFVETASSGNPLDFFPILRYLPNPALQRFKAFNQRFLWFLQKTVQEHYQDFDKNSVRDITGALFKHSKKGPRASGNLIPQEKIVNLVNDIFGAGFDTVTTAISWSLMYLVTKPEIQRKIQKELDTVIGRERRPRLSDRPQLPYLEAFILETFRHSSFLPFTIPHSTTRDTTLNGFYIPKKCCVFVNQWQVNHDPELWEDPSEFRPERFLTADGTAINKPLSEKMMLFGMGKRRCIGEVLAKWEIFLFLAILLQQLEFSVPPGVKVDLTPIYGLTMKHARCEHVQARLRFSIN

Candida albicans [13] = experiment: Antifungal activity against fluconazole-resistant Candida albicans 904 assessed as decrease in CDR1 expression at 16 ug/ml measured after 16 hrs by RT-PCR analysis; format: functional, organism-based; conditions: dose 16.0 µg/ml
Candida albicans [14] = experiment: Antifungal activity against fluconazole-resistant Candida albicans 904 assessed as decrease in MDR1 expression at 16 ug/ml measured after 16 hrs by RT-PCR analysis; format: functional, organism-based; conditions: dose 16.0 µg/ml
Candida albicans [15] = experiment: Antifungal activity against fluconazole-resistant Candida albicans 904 assessed as fungal growth inhibition measured for 48 hrs by CLSI based microdilution method; format: functional
Candida albicans [16] = experiment: Antifungal activity against fluconazole-resistant Candida albicans 904 assessed as reduction in […] cell count at 16 times MIC incubated for 24 hrs by time-kill assay (reference value: 4 log10CFU/mL); format: functional
Candida albicans [17] = experiment: Induction of ROS production in fluconazole-resistant Candida albicans 904 at 64 ug/ml incubated for 30 mins by fluorescence microscopy; format: functional, organism-based; conditions: dose 64.0 µg/ml
[18] = Metabolic stability in mouse liver microsomes assessed as half life incubated for 5 to 60 mins by LC-MS/MS analysis; format: ADME, Microsome; conditions: time 5-60 min
[19] = Stability in mouse plasma assessed as compound remaining at 1 uM measured for 180 mins by LC-MS/MS analysis; format: ADME, cell-free; conditions: read-out: Stability
Cytochrome P450 2C9 = Cytochrome P450 2C9 (Homo sapiens, UniProt P11712); experiment: Inhibition of CYP2C9 in human liver microsomes using diclofenac as substrate preincubated for 5 mins followed by NADPH addition by LC-MS/MS analysis; format: ADME, Microsome
Cytochrome P450 2D6 = Cytochrome P450 2D6 (Homo sapiens, UniProt P10635); experiment: Inhibition of CYP2D6 in human liver microsomes using dextromethorphan as substrate preincubated for 5 mins followed by NADPH addition by LC-MS/MS analysis; format: ADME, Microsome
[20] = Cytotoxicity against mouse J774.A1 cells assessed as cell growth inhibition by MTT assay; format: toxicity, cell-based
[21] = Cytotoxicity against human MRC5 cells assessed as cell growth inhibition by MTT assay; format: toxicity, cell-based
[22] = Subacute toxicity in KM mouse assessed as abnormal behaviour at 100 mg/kg administered via gavage daily for 14 days; format: organism-based; conditions: in vivo, po, 336 h, time 14 day
[23] = Subacute toxicity in KM mouse assessed as liver damage at 100 mg/kg administered via gavage daily for 7 days; format: organism-based; conditions: in vivo, po, 168 h, time 7 day
[24] = Subacute toxicity in KM mouse assessed as liver inflammation at 100 mg/kg administered via gavage daily for 7 days; format: organism-based; conditions: in vivo, po, 168 h, time 7 day
[25] = Subacute toxicity in female KM mouse assessed as kidney damage at 100 mg/kg administered via gavage daily for 7 days; format: organism-based; conditions: in vivo, po, 168 h, time 7 day
[26] = Subacute toxicity in female KM mouse assessed as kidney inflammation at 100 mg/kg administered via gavage daily for 7 days; format: organism-based; conditions: in vivo, po, 168 h, time 7 day
[27] = Subacute toxicity in female KM mouse assessed as liver inflammation at 100 mg/kg administered via gavage daily for 14 days; format: organism-based; conditions: in vivo, po, 336 h, time 14 day
[28] = Subacute toxicity in male KM mouse assessed as kidney damage at 100 mg/kg administered via gavage daily for 14 days; format: organism-based; conditions: in vivo, po, 336 h, time 14 day

T1 sequence (P10613 whole entry): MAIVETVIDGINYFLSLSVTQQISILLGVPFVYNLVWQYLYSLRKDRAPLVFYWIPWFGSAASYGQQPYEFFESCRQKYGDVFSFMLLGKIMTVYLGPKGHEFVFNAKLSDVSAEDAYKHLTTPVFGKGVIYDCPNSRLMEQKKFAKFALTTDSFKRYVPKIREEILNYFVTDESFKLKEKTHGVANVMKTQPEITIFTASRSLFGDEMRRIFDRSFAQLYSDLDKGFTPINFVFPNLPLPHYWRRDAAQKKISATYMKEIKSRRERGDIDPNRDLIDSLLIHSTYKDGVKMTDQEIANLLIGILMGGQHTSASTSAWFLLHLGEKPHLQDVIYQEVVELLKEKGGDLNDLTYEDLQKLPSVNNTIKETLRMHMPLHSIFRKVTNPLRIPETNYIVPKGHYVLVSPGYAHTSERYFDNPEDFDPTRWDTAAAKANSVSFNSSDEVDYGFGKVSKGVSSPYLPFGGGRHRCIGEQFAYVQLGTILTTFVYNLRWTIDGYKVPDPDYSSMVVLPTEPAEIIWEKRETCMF
Sequence of Cytochrome P450 2D6 (P10635 whole entry): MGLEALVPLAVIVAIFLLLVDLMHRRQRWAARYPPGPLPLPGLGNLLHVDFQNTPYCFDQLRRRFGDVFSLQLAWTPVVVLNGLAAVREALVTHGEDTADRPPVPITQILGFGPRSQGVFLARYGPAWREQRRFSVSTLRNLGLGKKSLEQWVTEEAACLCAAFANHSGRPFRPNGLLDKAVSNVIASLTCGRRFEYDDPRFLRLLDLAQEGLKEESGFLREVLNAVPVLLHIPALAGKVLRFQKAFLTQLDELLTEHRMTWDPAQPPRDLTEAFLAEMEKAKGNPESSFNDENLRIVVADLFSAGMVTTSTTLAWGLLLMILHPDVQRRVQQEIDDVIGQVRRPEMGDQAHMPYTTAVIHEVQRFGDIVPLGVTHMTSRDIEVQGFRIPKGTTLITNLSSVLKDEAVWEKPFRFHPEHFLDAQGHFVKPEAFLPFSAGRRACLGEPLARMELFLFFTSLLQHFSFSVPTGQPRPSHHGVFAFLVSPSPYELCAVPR
Sequence of Cytochrome P450 2C9 (P11712 whole entry): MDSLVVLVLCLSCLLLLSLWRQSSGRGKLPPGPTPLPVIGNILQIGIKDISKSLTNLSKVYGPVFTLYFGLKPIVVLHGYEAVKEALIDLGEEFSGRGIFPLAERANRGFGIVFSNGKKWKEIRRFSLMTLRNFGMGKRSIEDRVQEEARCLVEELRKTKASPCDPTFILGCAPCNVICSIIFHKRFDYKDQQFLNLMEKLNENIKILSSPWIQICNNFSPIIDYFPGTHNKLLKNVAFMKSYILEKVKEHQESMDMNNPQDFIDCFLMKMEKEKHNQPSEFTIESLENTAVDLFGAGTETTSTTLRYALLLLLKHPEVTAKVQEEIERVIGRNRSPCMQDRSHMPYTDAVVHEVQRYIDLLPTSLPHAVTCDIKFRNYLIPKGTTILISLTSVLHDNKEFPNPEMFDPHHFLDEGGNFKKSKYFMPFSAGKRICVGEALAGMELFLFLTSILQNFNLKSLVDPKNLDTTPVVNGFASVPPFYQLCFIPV

O=c1ccc2ccc(COC(Cn3ccnc3)c3ccc(Cl)cc3Cl)cc2o1 (centres undefined)
MIC (Candida albicans [1]): 0.03 µg/mL (≈ 0.0722 µM)
MIC (Nakaseomyces glabratus): 0.5 µg/mL (≈ 1.2 µM)
MIC (Candida tropicalis): 0.25 µg/mL (≈ 0.602 µM)
MIC (Cryptococcus neoformans): 2 µg/mL (≈ 4.82 µM)
Activity [2]: 1.54%
inhibition (INH) [3]: Active
Activity (Candida albicans [4]): Active
MIC (Candida albicans [5]): 1 µg/mL (≈ 2.41 µM)
Activity (Candida albicans [6]): Dose-Dependent Effect
Activity (Candida albicans [7]): Dose-Dependent Effect
Activity (Candida albicans [8]): Active
Activity (Candida albicans [9]): Active
Activity (Candida albicans [10]): Active
Activity (Candida albicans [11]): Active
Activity (Candida albicans [12]): Active
IC50 (Cytochrome P450 1A2): 6.01 µM
Activity (Candida albicans [13]): Active
Activity (Candida albicans [14]): Active
MFC (Candida albicans [15]): 8 µg/mL (≈ 19.3 µM)
Activity (Candida albicans [16]): 2 log10CFU/ml
Activity (Candida albicans [17]): Active
half-life [18]: 15.2 min
remaining at 3 h, 1 µM [19]: 103%
IC50 (Cytochrome P450 2C9): 0.138 µM
IC50 (Cytochrome P450 2D6): 1.14 µM
IC50 [20]: 24.4 µM
IC50 [21]: 24.4 µM
Activity [22]: Non-Toxic
Activity [23]: Toxic
Activity [24]: Toxic
Activity [25]: Toxic
Activity [26]: Non-Toxic
Activity [27]: Toxic
Activity [28]: Toxic
